In patent US10940139B2, “Compounds that interact with the Ras superfamily for the treatment of cancers, inflammatory diseases, rasopathies, and fibrotic disease” (Shy Therapeutics LLC, priority 2017, dated 2021):

tested on: MAPK phosphorylation in PANC-1 pancreatic cancer cell line; assay: MAPK cell-based phosphorylation assay (cell-direct ELISA, EGF stimulation); conditions: Homo sapiens
Experimental: Cell lines: Tumor-derived pancreatic cancer cell lines PANC-1 were purchased from ATCC and were maintained according to ATCC recommendation.
Method: Cells were plated at 7500 cells/well density in 96-wells plate, starved over night, and the small molecules to be tested were added to the cells in the final concentration of 30 μM with 0.3% DMSO for 6 hours incubation at 37° C. For IC50 value determination, serial dilutions of compounds were added to cells under the same conditions. Next, cells were stimulated with 1.5 ng/ml EGF for 15 min. followed by cell fixation with 4% Formaldehyde in PBS at RT for 20 min. Phosphorylation level of MAPK was determined by Cell-direct ELISA.
Cell-direct ELISA: For each well, cells were permeabilized with PBS-Triton 0.1%, quenched with H2O2 0.6% in PBS-Triton 0.1%, and probed with anti-phospho-MAPK antibodies (R&D Systems) followed by HRP-conjugated secondary antibody (Jackson Immunoresearch, West Grove, Pa.). Next, a solution 50 μM of the fluorescent substrate AmpliFlu Red (Sigma) was added and incubated at RT for 20 min. At the end of the incubation time, fluorescence was measured at 595 nm on a microplate reader (AF2200; Eppendorf, Inc., Hamburg, Germany).

`Cc1ccccc1N1CCN(C(=O)c2csc3c(O)nc(-c4ccccn4)nc23)CC1` [drawing 1123] and `O=C(c1csc2c(O)nc(-c3ccccn3)nc12)N1CCN(Cc2cccc(O)c2)CC1` [drawing 1125] cannot be ordered by IC50: over 30 µM for the first, over 30 µM for the second.

`Oc1nc(-c2ccccn2)nc2c(-c3ccc(F)cc3F)csc12` [drawing 1210] was tested, and the IC50 was 2 to 10 µM.

same assay, conditions: Homo sapiens, * = tested at 10 μM

Point of comparison: `O=C(NCCc1ccncn1)c1csc2nc(-c3ccccn3)nc(N3CCOCC3)c12` [drawing 1261], inhibition at 10 µM 0%. Against it:
- CC(C)COc1ccc(-c2c(-c3ccccc3)sc3c(O)nc(-c4nccn4C)nc23)cn1 [drawing 1347] — higher, 51 to 75%
- COc1cnc(CNC(=O)c2csc3nc(-c4ccccn4)nc(N)c23)[nH]c1=O [drawing 1277] — higher, 25 to 50%
- CC(C)Oc1cnc(-c2ccccn2)nc1O [drawing 1252] — higher, 1 to 25%
- COc1ccc(-c2cc3nc(-c4ccccn4)nc(O)c3s2)cc1 [drawing 1323] — higher, 1 to 25%
- COc1cnc(CNC(=O)c2sc3c(O)nc(-c4ccccn4)nc3c2C)[nH]c1=O [drawing 1284] — the same, 0%
- COc1cnc(CNC(=O)c2csc3c(O)nc(-c4ccccn4)nc23)[nH]c1=O [drawing 1280] — the same, 0%
- COCCNc1nc(-c2ccccn2)nc2sc(-c3ccccc3)c(-c3ccccn3)c12 [drawing 1380] — the same, 0%
- CC(C)(C)c1sc2c(O)nc(-c3ccccn3)nc2c1Br [drawing 1314] — higher, 1 to 25%
- COCCNc1nc(-c2cn(C)cn2)nc2sc(-c3ccncc3)c(-c3ccccc3)c12 [drawing 1290] — the same, 0%
- COc1cnc(CNC(=O)c2cc3nc(-c4ccccn4)nc(O)c3s2)[nH]c1=O [drawing 1281] — higher, 51 to 75%
- COc1ccc(-c2csc3c(O)nc(-c4ccccn4)nc23)c(C)c1 [drawing 1220] — higher, 76 to 100%
- Oc1nc(-c2ccccn2)nc2cc(-c3ccncc3)sc12 [drawing 1321] — the same, 0%
- Cc1sc2c(O)nc(-c3nccn3C)nc2c1-c1ccc(OC(C)C)c(F)c1 [drawing 1370] — higher, 25 to 50%
- Oc1nc(-c2ccccn2)nc2c(-c3ccc(F)cc3F)csc12 [drawing 1210] — higher, 76 to 100%
- Cc1sc2c(O)nc(-c3ccccn3)nc2c1-c1ccccc1Cl [drawing 1275] — higher, 76 to 100%
- Nc1nc(O)c2sc(-c3cccc(C(=O)NC4CCNC4=O)c3)cc2n1 (stereo not drawn) [drawing 1302] — the same, 0%
- COc1ccnc(-c2nc(O)c3c(C(F)(F)F)csc3n2)c1 [drawing 1186] — higher, 1 to 25%
- Cc1sc2c(O)nc(-c3ccccn3)nc2c1-c1ccncc1 [drawing 1258] — higher, 51 to 75%
- Nc1nc(-c2ccccn2)nc2scc(Br)c12 [drawing 1231] — higher, 1 to 25%
- COc1nc(-c2ccccn2)nc2c(C3CCCC3)csc12 [drawing 1244] — higher, 1 to 25%
- OCC1(c2ccc(-c3csc4c(O)nc(-c5ccccn5)nc34)cc2)CC1 [drawing 1223] — higher, 51 to 75%
- Oc1nc(-c2ccccn2)nc2c(C3CCCC3)csc12 [drawing 1256] — higher, 76 to 100%
- COC(=O)c1c(C)sc2c(O)nc(-c3ccccn3)nc12 [drawing 1247] — higher, 1 to 25%
- COc1ccccc1-c1csc2c(O)nc(-c3ccccn3)nc12 [drawing 1209] — higher, 1 to 25%
- Oc1nc(-c2ccccn2)nc2c(-c3ccc4c(c3)CCCO4)csc12 [drawing 1238] — higher, 76 to 100%
- COC(=O)c1c(C)sc2c(N)nc(-c3ccccn3)nc12 [drawing 1260] — higher, 25 to 50%
- Cn1ccnc1-c1nc(O)c2scc(-c3ccc(F)cc3F)c2n1 [drawing 1376] — the same, 0%
- COCCNc1nc(-c2nccn2C)nc2sc(-c3ccccc3)c(-c3ccccc3)c12 [drawing 1295] — higher, 76 to 100%
- Cn1cnc(-c2nc(O)c3scc(-c4cccc(OC(F)(F)F)c4)c3n2)c1 [drawing 1366] — higher, 1 to 25%
- COCC(C)Nc1nc(-c2ccccn2)nc(C(=O)NCCCc2c[nH]cn2)c1Oc1ccccc1 (stereo not drawn) [drawing 1310] — higher, 1 to 25%
- CC(C)OCCNc1nc(-c2nccn2C)nc2sc(-c3ccccc3)c(-c3ccccc3)c12 [drawing 1327] — higher, 76 to 100%
- COCCNc1nc(-c2cn(C)cn2)nc2sc(-c3ccccc3)c(-c3ccccc3)c12 [drawing 1343] — higher, 76 to 100%
- Nc1nc(O)c2sc(-c3cccc(C(=O)NCc4ncc[nH]4)c3)cc2n1 [drawing 1305] — the same, 0%

same assay, conditions: Homo sapiens, at 30 μM

`O=C(c1csc2c(O)nc(-c3ccccn3)nc12)N1CCN(c2cccc(Cl)c2)CC1` [drawing 1120] and `Cc1ccccc1N1CCN(C(=O)c2csc3c(O)nc(-c4ccccn4)nc23)CC1` [drawing 1123] fall in the same range of inhibition at 30 µM: 25 to 50% for the first, 25 to 50% for the second.

First: c1ccc(-c2csc3nc(-c4ccccn4)nc(N4CCN(CCN5CCCC5)CC4)c23)cc1 [drawing 1101]
Second: CC(=O)N1CCN(c2nc(-c3ccccn3)nc3scc(-c4ccccc4)c23)CC1 [drawing 1109]
The inhibition at 30 µM of the first is higher: 76 to 100% for the first, 25 to 50% for the second.

`CC(C)C1=C(O)C2(CC2c2ccc(-c3ccccc3)cc2)C(C)CC1` (stereo not drawn) [drawing 1056] and `NC(=O)C1CCCN(c2nc(-c3ccccn3)nc3scc(-c4ccccc4)c23)C1` (stereo not drawn) [drawing 1107] fall in the same range of inhibition at 30 µM: 1 to 25% for the first, 1 to 25% for the second.

First: O=C(Nc1nnc(-c2ccccn2)[nH]1)C1Cc2cc(Cl)ccc2O1 (stereo not drawn) [drawing 1025]
Second: O=C(Nc1nnc(-c2ccccn2)[nH]1)c1ccn(-c2cccc(Cl)c2)n1 [drawing 1028]
The inhibition at 30 µM of the first is lower: 1 to 25% for the first, 25 to 50% for the second.

`O=S(=O)(CCc1ccccc1)N1CCCc2c(O)nc(-c3ccccn3)nc21` [drawing 1060] and `COc1ccc(CCC(=O)N2CCCc3c(O)nc(-c4ccccn4)nc32)cc1` [drawing 1058] fall in the same range of inhibition at 30 µM: 25 to 50% for the first, 25 to 50% for the second.

`O=C(Cc1cccs1)Nc1nnc(-c2ccccn2)[nH]1` [drawing 1007] and `O=C(Nc1nnc(-c2ccccn2)[nH]1)c1ncoc1-c1cccs1` [drawing 1009] fall in the same range of inhibition at 30 µM: 25 to 50% for the first, 25 to 50% for the second.

`O=C(CC(c1ccccc1)c1ccccc1)N1CCCc2c(O)nc(-c3ccccn3)nc21` [drawing 1061] and `O=C(c1ccc(=O)[nH]n1)N1CCCc2c(O)nc(-c3ccccn3)nc21` [drawing 1059] fall in the same range of inhibition at 30 µM: 1 to 25% for the first, 1 to 25% for the second.

First: Oc1ccc(C2(c3cccc(Cl)c3)CCCC2)cc1 [drawing 1047]
Second: O=C(c1csc2c(O)nc(-c3ccccn3)nc12)N1CCN(Cc2cccc(O)c2)CC1 [drawing 1125]
The inhibition at 30 µM of the first is higher: 76 to 100% for the first, 51 to 75% for the second.

First: O=C(c1csc2c(O)nc(-c3ccccn3)nc12)N1CCc2ccccc2CC1 [drawing 1072]
Second: O=C(NCCc1cccnc1)c1csc2c(O)nc(-c3ccccn3)nc12 [drawing 1071]
The inhibition at 30 µM of the first is higher: 25 to 50% for the first, 1 to 25% for the second.

`N#Cc1csc2nc(-c3ccccn3)nc(N3CCOCC3)c12` [drawing 1178] and `c1ccc(-c2csc3nc(-c4ccccn4)nc(NN4CCOCC4)c23)cc1` [drawing 1106] fall in the same range of inhibition at 30 µM: 1 to 25% for the first, 1 to 25% for the second.

`O=C(Nc1nnc(-c2ccccn2)[nH]1)C1CCN(C(=O)c2cccs2)CC1` [drawing 1027] and `O=C(Nc1nnc(-c2ccccn2)[nH]1)C1CCCN(c2cnccn2)C1` (stereo not drawn) [drawing 1019] fall in the same range of inhibition at 30 µM: 1 to 25% for the first, 1 to 25% for the second.

`CC(OCc1ccccc1)C(=O)Nc1nnc(-c2ccccn2)[nH]1` (stereo not drawn) [drawing 1016] and `O=C(Nc1nnc(-c2ccccn2)[nH]1)c1ccc2ccccc2n1` [drawing 1002] fall in the same range of inhibition at 30 µM: 1 to 25% for the first, 1 to 25% for the second.

First: Oc1nc(-c2ccccn2)nc2c1ncn2-c1ccccn1 [drawing 1077]
Second: O=C(Nc1nnc(-c2ccccn2)[nH]1)C1CCCC(C(F)(F)F)C1 (stereo not drawn) [drawing 1017]
The inhibition at 30 µM of the first is lower: 1 to 25% for the first, 51 to 75% for the second.
